From ChEMBL document CHEMBL3272151, “Quantitative structure-activity relationship of chymotrypsin-ligand interactions” (J Med Chem, 1977)

Assays:
Conditions in all cases: Homo sapiens
[1] = Binding affinity to alpha-chymotrypsin (unknown origin) assessed as hydrolysis
[2] = Binding affinity to chymotrypsin (unknown origin) assessed as acetylation at pH 7
[3] = Binding affinity to chymotrypsin (unknown origin)
[4] = Binding affinity to chymotrypsin (unknown origin) assessed as deacetylation
[5] = Binding affinity to chymotrypsin (unknown origin) assessed as hydrolysis
[6] = Binding affinity to alpha-chymotrypsin (unknown origin)

| Structure (SMILES) | log K [2] | log(1/Km) [3] | logKcat [5] | further results |
| --- | --- | --- | --- | --- |
| CCOC(=O)CNC(C)=O | -1.03 | 1.2 | – | logKcat [1]: -1.42 |
| COC(=O)[C@H](CC(C)C)NC(C)=O | – | 2.42 | 0.7 | log K [4]: 1.2 |
| O=C(Oc1ccc([N+](=O)[O-])cc1[N+](=O)[O-])c1cccc(Cl)c1 | 5.47 | – | – | – |
| COC(=O)CNC(=O)C(C)C | – | – | – | log(1/Km) [6]: 1.34; logKcat [1]: -1.68 |
| O=C(Oc1ccc([N+](=O)[O-])cc1[N+](=O)[O-])c1ccc(F)cc1 | 4.83 | – | – | – |
| COC(=O)CNC(=O)Cc1ccccc1 | – | – | – | log(1/Km) [6]: 2.1; logKcat [1]: -2.22 |
| COC(=O)[C@@H](NC(=O)c1ccccc1)C(C)C | -1.04 | 2.34 | -1.19 | log K [4]: -0.66 |
| O=C(Oc1ccc([N+](=O)[O-])cc1[N+](=O)[O-])c1cccc(C(F)(F)F)c1 | 5.47 | – | – | – |
| COC(=O)CNC(=O)c1ccc(N)cc1 | – | – | – | log(1/Km) [6]: 2.08; logKcat [1]: -1.39 |
| CC(=O)NCC(=O)Oc1ccc([N+](=O)[O-])cc1 | – | 3.4 | 0.27 | log K [4]: -0.12 |
| COC(=O)[C@H](Cc1ccc(O)cc1)NC(=O)c1ccccc1 | 2.56 | 4.74 | 1.96 | log K [4]: 2.08 |
| O=C(Oc1ccc([N+](=O)[O-])cc1[N+](=O)[O-])c1ccc(Cl)cc1 | 5.55 | – | – | – |
| COC(=O)CNC(=O)CCl | – | – | -1.26 | log(1/Km) [6]: 1.16 |
| CCC[C@H](NC(=O)c1ccccc1)C(=O)OC | 0.62 | 3.07 | 0.39 | log K [4]: 0.77 |
| COC(=O)[C@H](Cc1ccccc1)NC(C)=O | 2.9 | 2.9 | 1.72 | log K [4]: 2.04 |
| O=C(Oc1ccc([N+](=O)[O-])cc1[N+](=O)[O-])c1ccc(C(F)(F)F)cc1 | 6.4 | – | – | – |
| CCOC(=O)[C@H](Cc1ccc(O)cc1)NC(C)=O | 3.7 | 3.15 | 2.28 | log K [4]: 2.3 |
| COc1ccc(C(=O)Oc2ccc([N+](=O)[O-])cc2[N+](=O)[O-])cc1 | 4.96 | – | – | – |
| CCOC(=O)NCC(=O)OC | – | – | – | log(1/Km) [6]: 1.19; logKcat [1]: -0.88 |
| COC(=O)CNC(=O)C(F)(F)F | – | – | – | log(1/Km) [6]: 1.27; logKcat [1]: -1.07 |
| COC(=O)CNC(=O)CC(C)C | – | – | – | log(1/Km) [6]: 1.62; logKcat [1]: -1.6 |
| COC(=O)CNC(=O)c1c[nH]c2ccccc12 | – | – | -1.25 | log(1/Km) [6]: 2.86 |

| Structure (SMILES) | log K [2] | log(1/Km) [3] | logKcat [5] | further results |
| --- | --- | --- | --- | --- |
| COC(=O)CNS(C)(=O)=O | – | – | – | log(1/Km) [6]: 1.07; logKcat [1]: -1.92 |
| CCOC(=O)[C@H](C)NC(=O)c1ccccc1 | -1.16 | 2.22 | -1.16 | log K [4]: -0.22 |
| CC(C)(C)c1ccc(C(=O)Oc2ccc([N+](=O)[O-])cc2)cc1 | 4.07 | – | – | – |
| Cc1ccc(C(=O)Oc2ccc([N+](=O)[O-])cc2[N+](=O)[O-])cc1 | 5.22 | – | – | – |
| COC(=O)CNC(=O)c1cccnc1 | – | – | – | log(1/Km) [6]: 1.5; logKcat [1]: -0.34 |
| COC(=O)[C@@H](NC(=O)CCl)C(C)C | -0.49 | 1.37 | -0.9 | log K [4]: -0.68 |
| COC(=O)CNC(=O)c1ccncc1 | – | – | – | log(1/Km) [6]: 1.75; logKcat [1]: -0.8 |
| CCSCC(=O)NCC(=O)OC | – | – | – | log(1/Km) [6]: 1.98; logKcat [1]: -2.27 |
| CC[C@H](NC(=O)c1ccccc1)C(=O)OC | -0.39 | 2.85 | -0.49 | log K [4]: 0.18 |
| COC(=O)CNC(=O)C(Cl)Cl | – | – | – | log(1/Km) [6]: 1.66; logKcat [1]: -1.64 |
| O=C(Oc1ccc([N+](=O)[O-])cc1[N+](=O)[O-])c1ccccc1 | 4.86 | – | – | – |
| CC(C)c1ccc(C(=O)Oc2ccc([N+](=O)[O-])cc2[N+](=O)[O-])cc1 | 5.99 | – | – | – |
| CC[C@H](NC(C)=O)C(=O)OC | 0.94 | 1.28 | 0.02 | log K [4]: 0.22 |
| COC(=O)CNC(=O)c1ccccn1 | – | – | – | log(1/Km) [6]: 2; logKcat [1]: 0.39 |
| COC(=O)[C@H](Cc1ccc(O)cc1)NC(C)=O | – | – | – | log(1/Km) [6]: 3.49; logKcat [1]: 2.07 |
| CCC(=O)NCC(=O)OC | – | – | – | log(1/Km) [6]: 1.42; logKcat [1]: -1.74 |
| O=C(Oc1ccc([N+](=O)[O-])cc1[N+](=O)[O-])c1cccc(F)c1 | 5.25 | – | – | – |
| CCCC[C@H](NC(C)=O)C(=O)OC | 2.01 | 2.17 | 0.92 | log K [4]: 1.28 |
| COC(=O)[C@H](Cc1ccccc1)NC(=O)c1ccccc1 | 1.66 | 4.46 | 1.49 | log K [4]: 1.96 |
| CC(=O)N[C@@H](Cc1ccccc1)C(=O)Oc1ccc([N+](=O)[O-])cc1 | – | 4.62 | 1.89 | – |
| CCC[C@H](NC(C)=O)C(=O)OC | 1.55 | 1.99 | 0.43 | log K [4]: 0.77 |
| COC(=O)CNC(=O)c1ccco1 | – | – | – | log(1/Km) [6]: 1.71; logKcat [1]: -0.01 |

| Structure (SMILES) | log K [2] | log(1/Km) [3] | logKcat [5] | further results |
| --- | --- | --- | --- | --- |
| COC(=O)[C@H](C)NC(=O)c1ccccn1 | – | 1.74 | -1.15 | – |
| CCOC(=O)[C@H](Cc1ccc(O)cc1)NC(=O)c1ccccc1 | 2.4 | 4.66 | 1.93 | log K [4]: 2.12 |
| COC(=O)[C@@H](NC(C)=O)C(C)C | -0.01 | 0.95 | -0.82 | log K [4]: -0.68 |
| Cc1cccc(C(=O)Oc2ccc([N+](=O)[O-])cc2[N+](=O)[O-])c1 | 4.75 | – | – | – |
| CC(C)c1ccc(C(=O)Oc2ccc([N+](=O)[O-])cc2)cc1 | 4.44 | – | – | – |
| CCOC(=O)[C@H](Cc1ccccc1)NC(C)=O | 2.42 | 2.96 | 1.84 | log K [4]: 1.97 |
| COC(=O)[C@H](C)NC(=O)c1cccs1 | – | 1.82 | -0.34 | – |
| CC(=O)c1ccc(OC(=O)CNC(=O)c2ccccc2)cc1 | – | 4.51 | -0.28 | – |
| CCc1ccc(C(=O)Oc2ccc([N+](=O)[O-])cc2[N+](=O)[O-])cc1 | 5.53 | – | – | – |
| COC(=O)CNC(=O)c1ccccc1 | -0.38 | – | -0.9 | log(1/Km) [6]: 2.12 |
| CCOC(=O)[C@@H](NC(C)=O)C(C)C | -0.26 | 0.96 | -0.88 | log K [4]: -0.68 |
| COc1ccc(OC(=O)CNC(=O)c2ccccc2)cc1 | – | 3.99 | -0.25 | – |
| CC[C@H](C)OC(=O)CNC(=O)c1ccccc1 | – | 2.95 | -1.04 | – |
| Cc1cccc(C(=O)Oc2ccc([N+](=O)[O-])cc2)c1 | 3.29 | – | – | – |
| Nc1ccc(OC(=O)CNC(=O)c2ccccc2)cc1 | – | 3.77 | -0.3 | – |
| CS(=O)(=O)N[C@@H](Cc1ccccc1)C(=O)Oc1ccc(Cl)cc1 | – | 4.88 | – | log K [5]: 1.56 |
| N#Cc1ccc(C(=O)Oc2ccc([N+](=O)[O-])cc2[N+](=O)[O-])cc1 | 5.94 | – | – | – |
| CS(=O)(=O)N[C@@H](Cc1ccccc1)C(=O)Oc1ccc([N+](=O)[O-])cc1 | – | 5.37 | – | log K [5]: 1.56 |
| CC(=O)N[C@H](C(=O)OC(C)C)C(C)C | -0.75 | 0.75 | -1.08 | log K [4]: -0.68 |
| CC[C@@H](C)OC(=O)[C@H](Cc1ccccc1)NC(C)=O | – | 2.76 | 1.98 | – |
| COC(=O)[C@H](C)NC(=O)c1ccccc1N | – | 2.33 | -0.62 | – |
| O=C(CNC(=O)c1ccccc1)Oc1ccccc1 | – | 3.87 | -0.31 | – |
